Source: patent US12528767B2, “HDAC6 inhibitors and uses thereof” (Eikonizo Therapeutics, Inc., priority 2019, dated 2026)
Read-outs that look alike come from different tables or passages of the source.

Legend:
Full length Human HDAC6 = molecular target: T1, Full length Human HDAC6 (Homo sapiens, UniProt Q9UBN7); details: for Selectivity (6 v 8) (fold): ratio of HDAC8 IC50/HDAC6 IC50
T1 sequence (Q9UBN7 1-1215): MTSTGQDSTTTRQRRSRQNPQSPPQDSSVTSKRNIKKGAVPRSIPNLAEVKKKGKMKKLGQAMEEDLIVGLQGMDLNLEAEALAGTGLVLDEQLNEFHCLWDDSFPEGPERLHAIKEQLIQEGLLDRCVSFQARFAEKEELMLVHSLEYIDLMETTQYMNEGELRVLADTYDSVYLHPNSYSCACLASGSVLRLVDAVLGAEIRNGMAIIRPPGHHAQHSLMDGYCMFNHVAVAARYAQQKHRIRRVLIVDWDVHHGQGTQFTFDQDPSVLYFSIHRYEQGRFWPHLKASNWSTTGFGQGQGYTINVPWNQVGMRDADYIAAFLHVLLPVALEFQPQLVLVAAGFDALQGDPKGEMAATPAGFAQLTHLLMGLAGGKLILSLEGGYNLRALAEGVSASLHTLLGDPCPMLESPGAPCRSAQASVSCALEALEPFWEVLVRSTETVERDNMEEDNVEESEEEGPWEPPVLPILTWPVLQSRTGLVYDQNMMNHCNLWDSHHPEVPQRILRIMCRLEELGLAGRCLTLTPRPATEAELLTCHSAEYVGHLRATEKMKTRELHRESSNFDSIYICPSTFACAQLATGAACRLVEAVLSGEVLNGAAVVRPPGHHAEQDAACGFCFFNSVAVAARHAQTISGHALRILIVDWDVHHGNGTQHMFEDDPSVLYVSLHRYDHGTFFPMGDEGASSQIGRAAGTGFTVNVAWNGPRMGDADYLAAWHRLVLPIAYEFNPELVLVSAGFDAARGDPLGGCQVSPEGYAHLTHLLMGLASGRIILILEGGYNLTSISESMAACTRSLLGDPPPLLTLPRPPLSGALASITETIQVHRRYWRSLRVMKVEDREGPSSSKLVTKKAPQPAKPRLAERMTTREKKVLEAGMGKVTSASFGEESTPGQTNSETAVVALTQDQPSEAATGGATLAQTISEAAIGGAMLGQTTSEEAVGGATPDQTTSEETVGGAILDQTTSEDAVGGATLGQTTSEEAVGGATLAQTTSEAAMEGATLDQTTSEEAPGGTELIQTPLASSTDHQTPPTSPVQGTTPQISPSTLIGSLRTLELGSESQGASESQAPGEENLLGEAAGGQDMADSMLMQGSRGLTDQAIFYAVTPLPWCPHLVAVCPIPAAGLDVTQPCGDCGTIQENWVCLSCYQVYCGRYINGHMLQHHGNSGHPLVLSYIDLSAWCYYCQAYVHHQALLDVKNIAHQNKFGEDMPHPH

Full length Human HDAC8 = molecular target: T2, Full length Human HDAC8 (Homo sapiens, UniProt Q9BY41)
T2 sequence (Q9BY41 1-377): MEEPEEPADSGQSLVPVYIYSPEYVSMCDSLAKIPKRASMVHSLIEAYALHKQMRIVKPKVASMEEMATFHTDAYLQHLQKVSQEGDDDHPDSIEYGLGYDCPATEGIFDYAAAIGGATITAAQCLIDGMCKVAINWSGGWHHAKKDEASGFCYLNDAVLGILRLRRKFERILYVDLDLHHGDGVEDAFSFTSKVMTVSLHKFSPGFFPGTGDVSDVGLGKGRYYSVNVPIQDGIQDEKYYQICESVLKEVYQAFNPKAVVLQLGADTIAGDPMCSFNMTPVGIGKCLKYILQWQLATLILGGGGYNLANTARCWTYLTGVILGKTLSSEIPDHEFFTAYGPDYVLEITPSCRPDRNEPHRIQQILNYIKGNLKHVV

Compound	IC50 (Full length Human HDAC6)	Selectivity (6 v 8) (fold) (Full length Human HDAC6; Table 1, number)	Selectivity (6 v 8) (fold) (Full length Human HDAC6; Table 1, range class)	IC50 (Full length Human HDAC8)
O=C(NO)c1cc(F)c2c(c1)CCN(C1CCC13CCCCC3)C2 (stereo not drawn) [compound 15]	0.001 to 0.1 µM	209.2 fold	IV (IV: >100-1000)	10 to 100 µM
O=C1CC2CCC(C1)N2Cc1ccc(C(=O)NO)cc1F [compound 63]	0.001 to 0.1 µM	42.1 fold	III (III: >10-100)	0.1 to 1 µM
O=C(NO)c1cc(F)c2c(c1)CCN(CC1CCC1)C2 [compound 3]	0.001 to 0.1 µM			1 to 10 µM
O=C(NO)c1cc(F)c2c(c1)CCN([C@H]1CCC13CCCCC3)C2 (single isomer, unassigned) [compound 9]	0.001 to 0.1 µM	207.1 fold	IV (IV: >100-1000)	10 to 100 µM
O=C1CC2CCCC(C1)N2Cc1ccc(C(=O)NO)cc1F [compound 62]	0.001 to 0.1 µM	30.6 fold	III (III: >10-100)	0.1 to 1 µM
CC1(C)C[C@H]2Cc3cc(C(=O)NO)cc(F)c3CN2C1 (single isomer, unassigned) [compound 125]	0.001 to 0.1 µM	82 fold	III (III: >10-100)	1 to 10 µM
O=C(NO)c1cc(F)c2c(c1)CCN(CC13CC4CC(CC(C4)O1)C3)C2 [compound 14]	0.001 to 0.1 µM			10 to 100 µM
CN1CC2CCC(C1)N2Cc1ccc(C(=O)NO)cc1F [compound 56]	0.001 to 0.1 µM	19 fold	III (III: >10-100)	0.1 to 1 µM
CC1(CN2CCc3cc(C(=O)NO)cc(F)c3C2)CC1 [compound 1, 8-fluoro-N-hydroxy-2-((1-methylcyclopropyl)methyl)-1,2,3,4-tetrahydroisoquinoline-6-carboxamide]	0.001 to 0.1 µM	145.7 fold	IV (IV: >100-1000)	10 to 100 µM
O=C(NO)c1cc(F)c2c(c1)CN(CC13CC4CC(CC(C4)O1)C3)C2 [compound 13]	0.1 to 1 µM	168.4 fold	IV (IV: >100-1000)	10 to 100 µM
O=C(NO)c1cc(F)c2c(c1)CCN(CC(F)(F)F)C2 [compound 7]	0.001 to 0.1 µM			1 to 10 µM

Results, then the compound that gave them:

IC50 (Full length Human HDAC6)	Selectivity (6 v 8) (fold) (Full length Human HDAC6; Table 1, number)	Selectivity (6 v 8) (fold) (Full length Human HDAC6; Table 1, range class)	IC50 (Full length Human HDAC8)	Compound
0.001 to 0.1 µM	69.7 fold	III (III: >10-100)	1 to 10 µM	O=C(NO)c1ccc2c(c1)CCN(CC13CC4CC(CC(C4)C1)C3)C2 [compound 26]
0.001 to 0.1 µM	10.7 fold	III (III: >10-100)	0.1 to 1 µM	CN1CC2CCC1CN2Cc1ccc(C(=O)NO)cc1F (stereo not drawn) [compound 57]
0.001 to 0.1 µM	35.8 fold	III (III: >10-100)	1 to 10 µM	O=C(NO)c1ccc(CN2CCC3(CCCC3)C2)c(F)c1 [compound 73]
0.1 to 1 µM	14 fold	III (III: >10-100)	1 to 10 µM	O=C(NO)c1ccc2c(c1)Cn1cccc1-2 [compound 166, N-hydroxy-5H-pyrrolo[2,1-a]isoindole-7-carboxamide]
0.001 to 0.1 µM			1 to 10 µM	Cc1cccc(C)c1CN1CCc2cc(C(=O)NO)cc(F)c2C1 [compound 28]
0.1 to 1 µM			1 to 10 µM	O=C(NO)c1ccc2c(c1)C[C@@H]1COCC(=O)N1C2 (single isomer, unassigned) [compound 133]
0.001 to 0.1 µM			1 to 10 µM	O=C(NO)c1ccc(CN2CCCC3(C2)C2CC4CC(C2)CC3C4)c(F)c1 (stereo not drawn) [compound 77]
0.001 to 0.1 µM			1 to 10 µM	O=C(NO)c1cc(F)c2c(c1)CCn1cccc1-2 [compound 147, 10-fluoro-N-hydroxy-5,6-dihydropyrrolo[2,1-a] isoquinoline-8-carboxamide]
0.001 to 0.1 µM			1 to 10 µM	O=C(NO)c1ccc(CN2CCCC3(CCCCC3)C2)c(F)c1 [compound 64]
0.001 to 0.1 µM			1 to 10 µM	O=C(NO)c1cc(F)c2c(c1)CN(CC13CC4CC(CC(C4)C1)C3)CC2 [compound 113, 2-(((3r,5r,7r)-adamantan-1-yl)methyl)-5-fluoro-N-hydroxy-1,2,3,4-tetrahydroisoquinoline-7-carboxamide]
0.1 to 1 µM	45 fold	III (III: >10-100)	10 to 100 µM	O=C(NO)c1cc(F)c2c(c1)C[C@H]1CCC3(CCCCC3)CN1C2 (single isomer, unassigned) [compound 138]
0.001 to 0.1 µM	7.9 fold	II (II: >1-10)	0.1 to 1 µM	CN1Cc2ccc(C(=O)NO)cc2CN1Cc1ccccc1 [compound 117, 3-benzyl-N-hydroxy-2-methyl-1,2,3,4-tetrahydrophthalazine-6-carboxamide]
0.001 to 0.1 µM	41.9 fold	III (III: >10-100)	1 to 10 µM	O=C(NO)c1ccc(CN2CCC3(CC2)C2CC4CC(C2)CC3C4)c(F)c1 [compound 167, 3-fluoro-N-hydroxy-4-(((1r,3r,5r,7r)-spiro[adamantane-2,4′-piperidin]-1′-yl)methyl)benzamide]
0.001 to 0.1 µM	30.2 fold	III (III: >10-100)	1 to 10 µM	CN1CC2(CCCCC2)CC[C@H]1Cc1cc(F)cc(C(=O)NO)c1 (single isomer, unassigned) [compound 171]
0.001 to 0.1 µM	44.8 fold	III (III: >10-100)	0.1 to 1 µM	O=C(NO)c1ccc(CN2CC3(COC3)C2)c(F)c1 [compound 72]
0.1 to 1 µM	50.2 fold	III (III: >10-100)	1 to 10 µM	O=C(NO)c1ccc2c(c1F)CCN(CC13CC4CC(CC(C4)C1)C3)C2 [compound 21]
